Test results: patent US8637664B2, “Alkyl 4- [4- (5-oxo-2,3,5, 11a-tetrahydo-5H-pyrrolo [2, 1-c] [1,4] benzodiazepine-8-yloxy)-butyrylamino]-1H-pyrrole-2-carboxylate derivatives and related compounds for the treatment of a proliferative disease” (Spirogen SARL, priority 2005, dated 2014)
pIC50: −log10 of the molar value. Read-outs that look alike come from different tables or passages of the source.

Key:
[1] = tested on: NF-Y binding at ICB1 of Topoisomerase IIα promoter; experiment: NF-Y gel shift assay (EMSA) at ICB1
[2] = tested on: NF-Y binding at ICB2 of Topoisomerase IIα promoter; experiment: NF-Y gel shift assay (EMSA) at ICB2
[3] = molecular target: 262 bp DNA fragment (MS2F or MS2R) of MS2 plasmid; experiment: DNase I footprinting on MS2 DNA fragment; format: binding
Description: The sequence selectivity of the six PBD-pyrrole conjugates (21, 23, 25, 27, 29) was evaluated by standard DNA footprinting on a fragment of MS2 as follows, in accordance with the technique described in Martin, C., et al., (Martin, C., et al., Biochemistry, 44(11), 4135-4147 (2005))
Forward (5′-[…]-3′) or reverse (5′-[…]-3′) primer was 5′-end labelled with ^32P by T4 polynucleotide kinase. Labelling mixture contained primer (5 pmol; Sigma-Genosys), 10× kinase buffer (1 μl; Promega), (γ-^32P)-ATP (2μ of 10 μCi/μl, 6000 Ci/mmol; Perkin Elmer Life Sciences), and T4 polynucleotide kinase (10 U; Promega) in a 10 μl final volume. Labelling mix was incubated at 37° C. for 30 minutes followed by inactivation of the kinase at 70° C. for 10 minutes. A 262 bp DNA fragment (MS2F or MS2R) was amplified from the MS2 plasmid using PCR with either labelled forward or reverse primer and the unlabelled primer as required. Reactions were comprised of labelled primer mix (10 μl), 10×PCR buffer (5 μl; Sigma), dNTPs (5 μl; 2.5 mM each of A, C, G and T, Amersham Pharmacia), unlabelled primer as required ([…]), MS2 plasmid template DNA (10 ng) and Taq DNA polymerase (5 U; Sigma) in a 50 μl final volume. Radiolabelled 262-mer was purified by non-denaturing polyacrylamide gel electrophoresis, elution, filtration and EtOH precipitation and was resuspended in a solution of Tris-HCl (10 mM) pH 7.4/NaCl (10 mM) to yield an activity of 200 counts per second per 5 μl when held up, in a pipette tip, to a capped Morgan series 900 mini-monitor.
For DNase I footprinting radiolabelled 262-mer (2 μl) was incubated overnight (16-18 h) with drug solution (388 μl) or in an aqueous buffer [HEPES (20 mM) pH 7.9, NaCl (50 mM), MgCl2 (1 mM), DTT (5 mM), 10% glycerol] in control reactions. Enzymatic cleavage was initiated by addition of DNase I solution (10 μl of 0.05 U/ml; Sigma) in aqueous NaCl (200 mM), MgCl2 (20 mM) and MnCl2 (20 mM) and halted with stop solution [40 μl of NaCl (2.25 M), EDTA (150 mM) pH 8.0, 0.57 μg/μl glycogen (0.57 μg/μl; Roche), poly(dl-dC).poly(dl-dC) DNA (19.3 ng/μl; Amersham Pharmacia)]. From this mixture, digested DNA fragments were prepared for electrophoresis following the protocol of Trauger & Dervan, and were loaded on to a preheated 8% denaturing polyacrylamide gel. Electrophoresis in 1×TBE buffer was allowed to proceed for 100 min at 70 W (1600-2000 V). The gel was the fixed in acetic acid (10% v/v) and methanol (10% v/v) for 15 minutes followed by being blotted onto Whatman 3 mM paper and vacuum-dried at 80° C. for 45 minutes.
Dried gels were stored at room temperature in phosphor storage screens (Molecular Dynamics) for a minimum period of 12 h. Data were collected from exposed screens using a Molecular Dynamics 425E Phosphorlmager and transferred to ImageQuant v1.2 software (Molecular Dynamics) for analysis. Data were expressed as the differential cleavage between control and sample lanes. Peaks were integrated and differential cleavage calculated as ln(fd)−ln(fc); (fd is the fractional cleavage at any particular bond in the presence of drug and fc is the fractional cleavage of the same bond in the control). Maxam-Gilbert G+A marker lanes were prepared in the usual fashion.
The vast majority of footprint sites are common features in the binding profiles of all six conjugates, with only a small number of sites being footprinted by a subset of the family. Even more unexpectedly, no site is footprinted by only one molecule (in fact, the fewest number of conjugates that bind at any single site is four). The differential cleavage plot provides footprinting profiles at a supramaximal concentration colour-coded for each conjugate which illustrates a striking degree of overlap. Although there is no conspicuous change in footprinting patterns as the number of pyrroles units in each conjugate increases, there are changes in two other features, namely, the apparent binding affinity and the width of the footprinted site. […]

[4] = tested on: 170 bp sequence of the human Topo-IIa promoter; experiment: DNase I footprinting on Topo-IIa promoter (ICB1, ICB2 sites); format: binding
Summary of the method: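 DNase I footprinting on a 170 bp human Topo-IIa promoter fragment, compound lanes at 0, 1.6, 8, 40, 200, 1000, 5000 and 25000 nM. Values are the concentrations (μM) at which binding at the ICB1 and ICB2 sites is seen.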

| SMILES | Lowest concentration at which NF-Y binding inhibition was observed [1] [µM] | Lowest concentration at which NF-Y binding inhibition was observed [2] [µM] | pIC50 ([3]; read-out: DNase IC50 (apparent binding affinity; 50% inhibition of DNase I-mediated cleavage), estimated by eye, site 5′-62CAATACACA70-3′) | Concentration at which DNA binding is observed, ICB1 ([4]; ICB1 site) [µM] | Concentration at which DNA binding is observed, ICB2 ([4]; ICB2 site) [µM] | apparent binding affinity of C11 relative to 25 ([3]; C11 approximately 3 μM versus 25 30-100 nM) | Footprint Position D ([3]; MS2 DNA fragment, position D) | Footprint Position G ([3]; MS2 DNA fragment, position G) | Footprint Position K ([3]; MS2 DNA fragment, position K) | Footprint Position L ([3]; MS2 DNA fragment, position L) | Footprint Position M ([3]; MS2 DNA fragment, position M) | pIC50 ([3]; estimated by eye from footprint gel, read-out: DNase IC50 (apparent binding affinity)) |
| --- | --- | --- | --- | --- | --- | --- | --- | --- | --- | --- | --- | --- |
| COC(=O)c1cc(NC(=O)c2cc(NC(=O)CCCOc3cc4c(cc3OC)C(=O)N3CCC[C@H]3C=N4)cn2C)cn1C [Compound 23, (11aS) Methyl 4-({4-[4-(7-Methoxy-6-oxo-2,3,5,11a-tetrahydro-5H-pyrrolo[2,1-c][1,4]benzodiazepine-8-yloxy)-butyrylamino]-1-methyl-1H-pyrrole-2-carbonyl}-amino)-1-methyl-1H-pyrrole-2-carboxylate] | 5 | 5 | 6.52 to 7.00 | 1 | 1 | – | – | – | – | – | – | – |
| COC(=O)c1cc(NC(=O)c2cc(NC(=O)c3cc(NC(=O)CCOc4cc5c(cc4OC)C(=O)N4CCC[C@H]4C=N5)cn3C)cn2C)cn1C [Compound C11, (11aS) Methyl 4-{[4-({4-[4-(7-Methoxy-5-oxo-2,3,5,11a-tetrahydro-5H-pyrrolo[2,1-c][1,4]benzodiazepine-8-yloxy)-propionylamino]-1-methyl-1H-pyrrole-2-carbonyl]-amino)-1-methyl-1H-pyrrole-2-carbonyl]-amino}-1-methyl-1H-pyrrole-2-carboxylate] | – | – | – | – | – | 30-100 fold | lack of footprints | lack of footprints | much weaker binding | much weaker binding | lack of footprints | ~5.52 |
